From patent publication US12084420B2, “Indoline compounds for inhibiting KIF18A” (Volastra Therapeutics, Inc., priority 2021, dated 2024) come the findings set out here.

By IC50 is commonly meant the point on the concentration scale where inhibition reaches its midpoint. The term koff denotes a measure of how fast the partners let go of each other.

Where two headings read alike, the source gives them in different places.

The test system of experiment [1] is JIMT-1 cells. In words: Cell viability of KIF18a-sensitive cell lines, JIMT-1 (Cell Titre-Glo, 7 days). Conditions: JIMT-1 cells, 7 days, Cell Titre-Glo, read-out: JIMT-1 IC50. The format is cell-based. The protocol:
(§1) Cell Viability of KIF18a-Sensitive Cell Lines
(§2) Cell lines were seeded as follows 24 hours before compound treatment: HCC15 (Korean Cell Line Bank) 600 cell/well, 95 μL of RPMI-1640 media supplemented with 100 units/mL penicillin, 100 units/mL streptomycin and 10% FBS; NIH:OVCAR-3 (ATCC), 1000 cell/well, 95 μL of RPMI-1640 media supplemented with 100 units/mL penicillin, 100 units/mL streptomycin, 0.01 mg/mL bovine insulin, and 20% FBS; JIMT-1 (Addexbio) 1000 cell/well, 95 μL of DMEM media supplemented with 100 units/mL penicillin, 100 units/mL streptomycin, and 10% FBS.
(§3) Test compounds were added to cells in a 20× dilution scheme by adding 5 μL of serially diluted compound to the plate, and the treated cells were incubated for an additional 7 days in a 37° C., 5% CO2 incubator. DMSO was used as the negative control (0% effect), and wells omitting cells were used as the positive control (100% effect). The cells were incubated for seven days, and cell viability determined via the Promega Cell Titre-Glo® Assay kit. Luminescence units were converted to ATP concentrations via an ATP standard curve (10 point, 2-fold dilution from 5 uM). % Inhibition was calculated for each well as: ([max−min]−[test−min])/[max−min]. IC50 values were calculated from concentration vs. % Inhibition data via a four-parameter variable slope model.

For experiment [2], the system named is HCC15 cells. In words: Cell viability of KIF18a-sensitive cell lines, HCC15 (Cell Titre-Glo, 7 days). The format is cell-based. Conditions: HCC-15 cells, 7 days, Cell Titre-Glo, read-out: HCC-15 IC50. The essentials:
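Seeding was 24 h before dosing: HCC15 at 600 cells/well in RPMI-1640/10% FBS, OVCAR-3 at 1000 cells/well in RPMI-1640/20% FBS plus insulin, JIMT-1 at 1000 cells/well in DMEM/10% FBS. After serially diluted compound, cells grew 7 days at 37° C. Cell Titre-Glo luminescence was converted to ATP; IC50 came from a four-parameter fit.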

Experiment [3] relates to OVCAR-3 tumor cells implanted in Balb/C nude mice. Put plainly: In vivo activity, OVCAR-3 tumor xenograft, tumor growth inhibition. Also noted: species or system mouse. The settings on record: OVCAR3 model. The protocol:
(§4) Assessment of In Vivo Activity
(§5) OVCAR-3 (ATCC) tumor cells were maintained in vitro in RPMI-1640 medium supplemented with 20% fetal bovine serum, 0.01 mg/mL bovine insulin and 1% Anti-Anti at 37° C. in an atmosphere of 5% CO2 in air. HCC15 (DSMZ) tumor cells were maintained in vitro in RPMI 1640 medium supplemented with 10% fetal bovine serum and 1% Anti-Anti at 37° C. in an atmosphere of 5% CO2 in air.
(§6) The tumor cells were sub-cultured twice weekly. The cells growing in an exponential growth phase were harvested and counted for tumor inoculation.
(§7) Tumor cells (10×10^6) in 0.2 mL of PBS mixed with Matrigel (50:50) were inoculated subcutaneously on the right flank of each mouse. When the average tumor volume reached 110-175 mm^3, animals were randomized into groups of 10 and treatment started. OVCAR-3 cells were implanted in Balb/C nude mice, and HCC15 cell were implanted in SCID Beige mice.
(§8) Compounds were dosed once or twice a day (12 h) orally. Tumor Growth Inhibition (TGI) was calculated using the formula: TGI (%)=[1−(TN−T0)/(VN−V0)]×100; TN is the average tumor volume of a treatment group at the indicated timepoint, T0 is the average tumor volume of the treatment group on treatment day 0, VN is the average tumor volume of the vehicle control group at the indicated timepoint, and V0 is the average tumor volume of the vehicle group on treatment day 0. P value was calculated based on tumor size by One-Way ANOVA with GraphPad Prism 9.4.0 compared with the vehicle group, respectively. **** indicates p<0.0001.
(§9) The tumor volume of vehicle- and compound-treated mice as a function of time after start of treatment and the results of treatments with selected compounds on SCID Beige mice or nude mice implanted with HCC15 or OVCAR-3 are shown in FIGS. 1A-1E.

Experiment [4] concerns the target KIF18a-Microtubule Complex (Homo sapiens (Human), UniProt Q8NI77). Put plainly: Binding kinetics to KIF18a-microtubule complex (global progress curve analysis). Conditions: for kon (on-rate from binding kinetics assay) / koff (off-rate from binding kinetics assay): global progress curve analysis; for Ki: read-out: KI (determined from binding kinetic assay koff/kon), koff/kon; for koff: read-out: koff (off-rate from binding kinetics assay). Summed up:
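kon and koff determined by global progress curve analysis, with ADP formation measured by ADP-Glo. Time- and dose-dependent progress curves were globally fitted to a Michaelis-Menten model with one-step slow-binding inhibition.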

Experiment [5] addresses hKIF18A (1-374) (Homo sapiens (Human), UniProt Q8NI77). In words: Inhibition of KIF18A microtubule-dependent ATPase activity (ADP-Glo). The settings on record: KIF18A microtubule-dependent ATPase activity, biochemical assay. Background: ADP-Glo turns the ADP formed in a reaction into a luminescent signal.
Experiment [6] concerns HCC15 tumor cells implanted in SCID Beige mice. Put plainly: In vivo activity, HCC15 tumor xenograft, tumor growth inhibition. The arrangement: species or system mouse. Conditions: HCC15 model. As for the experimental part: as §4, §5, §6, §7, §8, §9
Experiment [7] has as its system NIH:OVCAR-3 cells. In words: Cell viability of KIF18a-sensitive cell lines, NIH:OVCAR-3 (Cell Titre-Glo, 7 days). The format is cell-based. Conditions: NIH-OVCAR3 cells, 7 days, Cell Titre-Glo, read-out: NIH-OVCAR3 IC50. The protocol: as §1, §2, §3

Chain of hKIF18A (1-374) (Q8NI77 whole entry, looked up): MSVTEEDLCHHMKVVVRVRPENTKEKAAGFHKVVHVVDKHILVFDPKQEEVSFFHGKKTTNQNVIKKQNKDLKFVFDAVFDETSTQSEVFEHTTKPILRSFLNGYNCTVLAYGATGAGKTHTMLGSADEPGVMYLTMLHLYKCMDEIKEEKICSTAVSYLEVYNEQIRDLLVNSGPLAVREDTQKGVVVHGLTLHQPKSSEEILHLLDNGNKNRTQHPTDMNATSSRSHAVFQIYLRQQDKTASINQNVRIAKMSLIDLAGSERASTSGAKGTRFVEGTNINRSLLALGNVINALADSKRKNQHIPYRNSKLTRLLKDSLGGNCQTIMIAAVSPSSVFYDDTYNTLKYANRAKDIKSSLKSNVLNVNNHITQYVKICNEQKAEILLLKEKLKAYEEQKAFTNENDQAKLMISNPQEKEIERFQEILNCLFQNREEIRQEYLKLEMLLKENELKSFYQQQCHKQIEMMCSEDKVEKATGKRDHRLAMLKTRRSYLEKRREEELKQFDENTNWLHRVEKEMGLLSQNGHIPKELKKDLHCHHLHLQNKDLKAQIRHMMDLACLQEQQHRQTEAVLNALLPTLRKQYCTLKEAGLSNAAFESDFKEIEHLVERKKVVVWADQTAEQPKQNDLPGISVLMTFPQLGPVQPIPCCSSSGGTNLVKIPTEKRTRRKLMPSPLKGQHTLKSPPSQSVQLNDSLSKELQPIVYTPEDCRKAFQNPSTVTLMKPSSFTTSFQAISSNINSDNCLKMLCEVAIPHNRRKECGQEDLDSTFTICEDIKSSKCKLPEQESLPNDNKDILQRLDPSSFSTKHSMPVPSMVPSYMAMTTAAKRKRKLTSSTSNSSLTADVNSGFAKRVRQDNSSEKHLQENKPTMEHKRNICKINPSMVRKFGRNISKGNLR
Chain of hKIF18A (1-374) (Q2XVP4 whole entry partner, looked up): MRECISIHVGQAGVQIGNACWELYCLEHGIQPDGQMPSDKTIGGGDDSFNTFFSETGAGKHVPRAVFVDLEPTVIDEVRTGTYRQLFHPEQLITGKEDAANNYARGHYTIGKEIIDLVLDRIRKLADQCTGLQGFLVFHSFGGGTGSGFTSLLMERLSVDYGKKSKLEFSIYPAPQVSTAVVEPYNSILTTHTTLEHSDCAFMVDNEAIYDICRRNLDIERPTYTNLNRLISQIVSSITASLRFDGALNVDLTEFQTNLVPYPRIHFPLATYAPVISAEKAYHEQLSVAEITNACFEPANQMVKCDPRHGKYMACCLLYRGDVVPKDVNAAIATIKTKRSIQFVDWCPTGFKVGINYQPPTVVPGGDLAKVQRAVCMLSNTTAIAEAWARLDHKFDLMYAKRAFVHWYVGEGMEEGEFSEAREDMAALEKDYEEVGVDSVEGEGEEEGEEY
Chain of hKIF18A (1-374) (P02554 whole entry partner, looked up): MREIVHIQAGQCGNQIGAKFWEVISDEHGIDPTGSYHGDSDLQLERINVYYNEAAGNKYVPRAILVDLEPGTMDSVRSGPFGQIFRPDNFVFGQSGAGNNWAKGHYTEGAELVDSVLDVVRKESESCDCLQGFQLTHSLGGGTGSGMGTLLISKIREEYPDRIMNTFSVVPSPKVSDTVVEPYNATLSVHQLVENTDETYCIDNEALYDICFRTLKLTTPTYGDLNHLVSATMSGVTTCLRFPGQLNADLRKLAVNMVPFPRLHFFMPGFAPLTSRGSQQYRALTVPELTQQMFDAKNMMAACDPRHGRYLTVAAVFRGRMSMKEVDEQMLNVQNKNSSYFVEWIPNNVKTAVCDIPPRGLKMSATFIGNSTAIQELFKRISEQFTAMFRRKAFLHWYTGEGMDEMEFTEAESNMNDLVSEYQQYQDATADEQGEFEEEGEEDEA
Chain of KIF18a-Microtubule Complex (Q8NI77 whole entry, looked up): as the sequence (Q8NI77 whole entry, looked up) above
Chain of KIF18a-Microtubule Complex (Q2XVP4 whole entry partner, looked up): as the sequence (Q2XVP4 whole entry partner, looked up) above
Chain of KIF18a-Microtubule Complex (P02554 whole entry partner, looked up): as the sequence (P02554 whole entry partner, looked up) above

Consider `CCS(=O)(=O)Nc1ccc2c(c1)C1(CCC3(CC3)CC1)CN2C(=O)c1cccc(S(=O)(=O)NC(C)(C)C)c1` [Compound 134, N-(tert-butyl)-3-(5″-(ethylsulfonamido)dispiro[cyclopropane-1,1′-cyclohexane-4′,3″-indoline]-1″-carbonyl)benzenesulfonamide], for which the IC50 in experiment [1] (Homo sapiens, 168 h) worked out at 4 nM; in experiment [2] (HCC15, 168 h), 5.1 nM; in experiment [5], 16 nM; in experiment [7] (Homo sapiens, OVCAR-3, 168 h) it was 5.1 nM. Besides, the TGI in experiment [3] (10 mg/kg BID PO) stood at 60 ± 17%; in experiment [3] (30 mg/kg BID PO, subfigure 1D), 111 ± 1%; in experiment [3] (30 mg/kg BID PO, subfigure printed 1R) it was 110 ± 1%; in experiment [3] (30 mg/kg QD PO), 104 ± 7%; in experiment [3] (60 mg/kg BID PO), 112 ± 1%; in experiment [3] (60 mg/kg QD PO), 109 ± 2%. The figures for the TGI in experiment [6] (10 mg/kg BID PO), in experiment [6] (30 mg/kg BID PO) and in experiment [6] (60 mg/kg BID PO) were 61 ± 10%, 89 ± 7% and 94 ± 5%, respectively. For the same compound, in experiment [4], the “kon (on-rate from binding kinetics assay)” value (“kon” for short) was determined as 15000 M⁻¹ s⁻¹. In addition, the “disc. t1/2 (dissociation half-life ln(2)/koff)” value in experiment [4] was 40 h. The Ki in experiment [4] is 0.34 nM. Moreover, the koff in experiment [4] was 5e-06 s⁻¹.

Regarding `CS(=O)(=O)Nc1ccc2c(c1)C1(CCC3(CC3)CC1)CN2C(=O)c1cccc(S(=O)(=O)C2CC(F)(F)C2)c1` [Compound 322, N-(1″-(3-((3,3-difluorocyclobutyl)sulfonyl)benzoyl)dispiro[cyclopropane-1,1′-cyclohexane-4′,3″-indolin]-5″- yl)methanesulfonamide], the IC50 in experiment [1] (Homo sapiens, 168 h) turned out to be 32 nM. In addition, the half-maximal inhibitory concentration (IC50) in experiment [2] (HCC15, 168 h) was found to be 43 nM. In experiment [4], the “kon” value turned out to be 10300 M⁻¹ s⁻¹, the “disc. t1/2 (dissociation half-life ln(2)/koff)” value is listed as 5.7 h, the Ki amounted to 3.3 nM and the koff was 3.33e-05 s⁻¹. The compound also yielded an IC50 in experiment [5] of 21 nM. Further, the IC50 in experiment [7] (Homo sapiens, OVCAR-3, 168 h) was found to be 40 nM.

Regarding `COc1ccc(C(=O)N2CC3(CCC4(CC4)CC3)c3cc(NS(C)(=O)=O)ccc32)cc1S(=O)(=O)NC(C)(C)C` [Compound 297, N-(tert-butyl)-2-methoxy-5-(5″-(methylsulfonamido)dispiro[cyclopropane-1,1′-cyclohexane-4′,3″-indoline]-1″-carbonyl)benzenesulfonamide], the IC50 in experiment [1] (Homo sapiens, 168 h) was determined as 9.8 nM. For the same compound, in experiment [2] (HCC15, 168 h), the IC50 stood at 11 nM. In addition, in experiment [4], the “kon” value came to 10300 M⁻¹ s⁻¹, the “disc. t1/2 (dissociation half-life ln(2)/koff)” value came out at 49 h, the Ki came to 0.38 nM and the koff is 3.89e-06 s⁻¹. For the same compound, inhibition in experiment [5] was half-maximal at 17 nM (IC50). Moreover, the IC50 in experiment [7] (Homo sapiens, OVCAR-3, 168 h) is 10 nM.

In the case of `CS(=O)(=O)Nc1ccc2c(c1)C1(CCC3(CC3)CC1)CN2C(=O)c1cccc([C@H](O)CC2CCC2)c1` (single isomer, unassigned) [Compound 305b], in experiment [1], the IC50 stood at 40 nM. In addition, the IC50 in experiment [2] stood at 60 nM. In experiment [4], the “koff (off-rate from binding kinetics assay)” value was determined as 0.000389 s⁻¹, the “kon” value came out at 106000 M⁻¹ s⁻¹, the “disc. t1/2 (dissociation half-life ln(2)/koff)” value was 0.49 h and the Ki worked out at 3.7 nM. Moreover, half-maximal inhibition in experiment [5] (IC50) required 6.8 nM. In addition, the IC50 in experiment [7] is 69 nM.

Take `O=C(c1cccc(S(=O)(=O)C2CCCC2)c1)N1CC2(CCC3(CC3)CC2)c2cc(NS(=O)(=O)CCO)ccc21` [Compound 229, N-(1″-(3-(cyclopentylsulfonyl)benzoyl)dispiro [cyclopropane-1,1′-cyclohexane-4′,3″- indolin]-5″-yl)-2-hydroxyethane-1-sulfonamide]: the IC50 in experiment [1] (Homo sapiens, 168 h) stood at 11 nM. For the same compound, in experiment [2] (HCC15, 168 h), the IC50 stood at 11 nM. In addition, in experiment [4], the “kon” value was 16900 M⁻¹ s⁻¹, the “disc. t1/2 (dissociation half-life ln(2)/koff)” value worked out at 39 h, the Ki amounted to 0.29 nM and the koff was 5e-06 s⁻¹. Moreover, half-maximal inhibition in experiment [5] (IC50) was put at 6.2 nM. Also, the IC50 in experiment [7] (Homo sapiens, OVCAR-3, 168 h) came to 13 nM.

Consider `CS(=O)(=O)Nc1ccc2c(c1)C1(CCC3(CC3)CC1)CN2C(=O)c1cccc(S(=O)(=O)NC23CC(C2)C3)c1` [Compound 223, N-(bicyclo[1.1.1]pentan-1-yl)-3-(5″-(methylsulfonamido)dispiro[cyclopropane-1,1′-cyclohexane-4′,3″-indoline]-1″-carbonyl)benzenesulfonamide], for which the IC50 in experiment [1] (Homo sapiens, 168 h) was determined as 15 nM; in experiment [2] (HCC15, 168 h) it was 21 nM; in experiment [5], 6.7 nM; in experiment [7] (Homo sapiens, OVCAR-3, 168 h), 20 nM. The “kon” value in experiment [4] was determined as 6390 M⁻¹ s⁻¹. Also, the “disc. t1/2 (dissociation half-life ln(2)/koff)” value in experiment [4] is recorded as 7.9 h. In addition, the Ki in experiment [4] was found to be 0.26 nM. Further, the koff in experiment [4] was 2.44e-05 s⁻¹.

For the compound `CS(=O)(=O)Nc1ccc2c(c1)C1(CCC3(CC3)CC1)CN2C(=O)c1cccc(C(O)C2CCCC2)c1` (single isomer, unassigned) [Compound 165a], the IC50 in experiment [1] is 45 nM; in experiment [2] it was 68 nM; in experiment [5], 8.8 nM; in experiment [7] it was 59 nM. Further, the “koff (off-rate from binding kinetics assay)” value in experiment [4] came to 5e-05 s⁻¹. Further, the “kon” value in experiment [4] worked out at 11900 M⁻¹ s⁻¹. Further, the “disc. t1/2 (dissociation half-life ln(2)/koff)” value in experiment [4] was 3.8 h. The Ki in experiment [4] turned out to be 4.2 nM.

In the case of `CCS(=O)(=O)Nc1ccc2c(c1)C1(CCC3(CC3)CC1)CN2C(=O)c1cccc(S(=O)(=O)N2CC3(CCO3)C2)c1` [Compound 320, N-(1″-(3-((1-oxa-6-azaspiro[3.3]heptan-6-yl)sulfonyl)benzoyl)dispiro[cyclopropane-1,1′-cyclohexane-4′,3″-indolin]-5″- yl)ethanesulfonamide], the IC50 in experiment [1] (Homo sapiens, 168 h) amounted to 14 nM. In experiment [2] (HCC15, 168 h), the IC50 was found to be 21 nM. In experiment [4], the “kon” value was 7500 M⁻¹ s⁻¹, the “disc. t1/2 (dissociation half-life ln(2)/koff)” value was found to be 45 h, the Ki stood at 0.57 nM and the koff is 4.17e-06 s⁻¹. Besides, the IC50 in experiment [5] came out at 18 nM. In experiment [7] (Homo sapiens, OVCAR-3, 168 h), the IC50 was found to be 20 nM.
